# Results from the kinase profiling compilation of Christmann-Franck et al. (2016).
# Assays:
# Test in all cases: radiometric filter-binding kinase assay, Kinaseprofiler
# [1] = molecular target: BTK (human) (UniProt Q06187); conditions: ATP 200 µM
# [2] = molecular target: AURKC (human) (UniProt Q9UQB9); conditions: ATP 15 µM
# [3] = molecular target: FES (human) (UniProt P07332); conditions: ATP 45 µM
# [4] = molecular target: CLK2 (human) (UniProt P49760); conditions: ATP 15 µM
# [5] = molecular target: ERBB4 (human) (UniProt Q15303); conditions: ATP 15 µM
# [6] = molecular target: NTRK1 (human) (UniProt P04629); conditions: ATP 120 µM
# [7] = molecular target: MYLK (human) (UniProt Q15746); conditions: ATP 70 µM
# [8] = molecular target: TBK1 (human) (UniProt Q9UHD2); conditions: ATP 155 µM
# [9] = molecular target: IRAK1 (human) (UniProt P51617); conditions: ATP 45 µM
# [10] = molecular target: DCLK2 (human) (UniProt Q8N568); conditions: ATP 90 µM
# [11] = molecular target: HIPK1 (human) (UniProt Q86Z02); conditions: ATP 45 µM
# [12] = molecular target: PAK7 (human) (UniProt Q9P286); conditions: ATP 15 µM
# [13] = molecular target: GRK5 (human) (UniProt P34947); conditions: ATP 15 µM
# [14] = molecular target: FGFR4 (human) (UniProt P22455); conditions: ATP 155 µM
# [15] = molecular target: HIPK3 (human) (UniProt Q9H422); conditions: ATP 15 µM
# [16] = molecular target: CHUK (human) (UniProt O15111); conditions: ATP 10 µM
# [17] = molecular target: NEK2 (human) (UniProt P51955); conditions: ATP 120 µM
# [18] = molecular target: ABL2 (human) (UniProt P42684); conditions: ATP 45 µM
# [19] = molecular target: DAPK1 (human) (UniProt P53355); conditions: ATP 70 µM
# [20] = molecular target: ROCK2 (human) (UniProt O75116); conditions: ATP 15 µM
# [21] = molecular target: CDK7 CCNH MNAT1 (human) (UniProt P50613+P51948+P51946); conditions: ATP 90 µM
# [22] = molecular target: HCK (human) (UniProt P08631)
# [23] = molecular target: RET (human) (UniProt P07949); conditions: ATP 70 µM
# [24] = system: GSK3A (human), P49840 [S449A]; conditions: ATP 10 µM
# [25] = molecular target: DYRK2 (human) (UniProt Q92630); conditions: ATP 15 µM
# [26] = molecular target: TXK (human) (UniProt P42681); conditions: ATP 200 µM
# [27] = molecular target: FGFR3 (human) (UniProt P22607); conditions: ATP 15 µM
# [28] = molecular target: KIT (human) (UniProt P10721); conditions: ATP 200 µM
# [29] = molecular target: PTK2 (human) (UniProt Q05397); conditions: ATP 70 µM
# [30] = molecular target: CAMK1 (human) (UniProt Q14012); conditions: ATP 200 µM
# [31] = molecular target: SIK1 (human) (UniProt P57059); conditions: ATP 45 µM
# [32] = molecular target: RPS6KA5 KD1 KD2 (human) (UniProt O75582); conditions: ATP 90 µM
# Sequence of HCK (human) (P08631 whole entry, looked up): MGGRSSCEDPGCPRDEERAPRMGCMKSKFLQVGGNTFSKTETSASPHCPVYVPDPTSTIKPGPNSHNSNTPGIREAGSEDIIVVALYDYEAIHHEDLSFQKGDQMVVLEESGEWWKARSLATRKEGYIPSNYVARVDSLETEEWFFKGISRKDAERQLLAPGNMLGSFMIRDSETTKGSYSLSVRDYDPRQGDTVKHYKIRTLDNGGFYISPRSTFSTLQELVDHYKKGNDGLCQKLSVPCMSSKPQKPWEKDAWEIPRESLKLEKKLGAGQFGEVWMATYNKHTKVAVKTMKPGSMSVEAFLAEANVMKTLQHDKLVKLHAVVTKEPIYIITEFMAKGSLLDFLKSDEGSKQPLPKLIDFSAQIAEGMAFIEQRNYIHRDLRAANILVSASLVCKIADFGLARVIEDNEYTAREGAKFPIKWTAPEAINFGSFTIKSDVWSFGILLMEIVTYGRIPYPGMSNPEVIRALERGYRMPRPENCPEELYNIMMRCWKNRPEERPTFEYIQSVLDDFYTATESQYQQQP
# Sequence of HIPK3 (human) (Q9H422 whole entry, looked up): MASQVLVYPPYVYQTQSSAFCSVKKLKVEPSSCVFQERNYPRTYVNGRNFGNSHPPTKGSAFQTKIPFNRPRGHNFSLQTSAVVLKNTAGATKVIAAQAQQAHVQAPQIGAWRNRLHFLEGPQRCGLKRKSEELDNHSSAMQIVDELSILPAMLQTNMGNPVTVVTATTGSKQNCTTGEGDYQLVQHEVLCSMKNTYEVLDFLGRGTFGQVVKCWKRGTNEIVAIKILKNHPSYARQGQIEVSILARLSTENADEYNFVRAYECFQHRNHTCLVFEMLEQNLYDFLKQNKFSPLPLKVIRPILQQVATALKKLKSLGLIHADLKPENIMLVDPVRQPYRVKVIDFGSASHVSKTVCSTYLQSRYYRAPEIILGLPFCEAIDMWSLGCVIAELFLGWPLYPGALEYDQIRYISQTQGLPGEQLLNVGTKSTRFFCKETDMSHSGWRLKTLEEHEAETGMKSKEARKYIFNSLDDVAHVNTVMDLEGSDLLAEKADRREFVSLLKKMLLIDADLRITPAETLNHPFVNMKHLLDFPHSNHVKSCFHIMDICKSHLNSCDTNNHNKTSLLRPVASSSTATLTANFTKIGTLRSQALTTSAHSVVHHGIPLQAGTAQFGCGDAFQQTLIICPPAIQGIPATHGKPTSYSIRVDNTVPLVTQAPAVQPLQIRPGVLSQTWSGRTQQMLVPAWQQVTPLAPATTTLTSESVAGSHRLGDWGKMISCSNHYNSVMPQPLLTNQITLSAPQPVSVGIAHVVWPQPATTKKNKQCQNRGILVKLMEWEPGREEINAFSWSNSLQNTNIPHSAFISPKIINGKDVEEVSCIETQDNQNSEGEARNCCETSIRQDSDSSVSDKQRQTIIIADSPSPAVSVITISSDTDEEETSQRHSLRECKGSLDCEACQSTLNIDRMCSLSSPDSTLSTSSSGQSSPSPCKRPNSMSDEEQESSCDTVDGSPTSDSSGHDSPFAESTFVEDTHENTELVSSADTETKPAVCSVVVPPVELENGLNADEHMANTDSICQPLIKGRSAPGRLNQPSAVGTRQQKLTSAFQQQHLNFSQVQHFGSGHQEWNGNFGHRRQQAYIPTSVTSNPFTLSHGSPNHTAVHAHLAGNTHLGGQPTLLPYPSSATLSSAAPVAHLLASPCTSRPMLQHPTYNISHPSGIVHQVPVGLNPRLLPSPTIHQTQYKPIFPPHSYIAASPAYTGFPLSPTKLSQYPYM
# Sequence of ERBB4 (human) (Q15303 whole entry, looked up): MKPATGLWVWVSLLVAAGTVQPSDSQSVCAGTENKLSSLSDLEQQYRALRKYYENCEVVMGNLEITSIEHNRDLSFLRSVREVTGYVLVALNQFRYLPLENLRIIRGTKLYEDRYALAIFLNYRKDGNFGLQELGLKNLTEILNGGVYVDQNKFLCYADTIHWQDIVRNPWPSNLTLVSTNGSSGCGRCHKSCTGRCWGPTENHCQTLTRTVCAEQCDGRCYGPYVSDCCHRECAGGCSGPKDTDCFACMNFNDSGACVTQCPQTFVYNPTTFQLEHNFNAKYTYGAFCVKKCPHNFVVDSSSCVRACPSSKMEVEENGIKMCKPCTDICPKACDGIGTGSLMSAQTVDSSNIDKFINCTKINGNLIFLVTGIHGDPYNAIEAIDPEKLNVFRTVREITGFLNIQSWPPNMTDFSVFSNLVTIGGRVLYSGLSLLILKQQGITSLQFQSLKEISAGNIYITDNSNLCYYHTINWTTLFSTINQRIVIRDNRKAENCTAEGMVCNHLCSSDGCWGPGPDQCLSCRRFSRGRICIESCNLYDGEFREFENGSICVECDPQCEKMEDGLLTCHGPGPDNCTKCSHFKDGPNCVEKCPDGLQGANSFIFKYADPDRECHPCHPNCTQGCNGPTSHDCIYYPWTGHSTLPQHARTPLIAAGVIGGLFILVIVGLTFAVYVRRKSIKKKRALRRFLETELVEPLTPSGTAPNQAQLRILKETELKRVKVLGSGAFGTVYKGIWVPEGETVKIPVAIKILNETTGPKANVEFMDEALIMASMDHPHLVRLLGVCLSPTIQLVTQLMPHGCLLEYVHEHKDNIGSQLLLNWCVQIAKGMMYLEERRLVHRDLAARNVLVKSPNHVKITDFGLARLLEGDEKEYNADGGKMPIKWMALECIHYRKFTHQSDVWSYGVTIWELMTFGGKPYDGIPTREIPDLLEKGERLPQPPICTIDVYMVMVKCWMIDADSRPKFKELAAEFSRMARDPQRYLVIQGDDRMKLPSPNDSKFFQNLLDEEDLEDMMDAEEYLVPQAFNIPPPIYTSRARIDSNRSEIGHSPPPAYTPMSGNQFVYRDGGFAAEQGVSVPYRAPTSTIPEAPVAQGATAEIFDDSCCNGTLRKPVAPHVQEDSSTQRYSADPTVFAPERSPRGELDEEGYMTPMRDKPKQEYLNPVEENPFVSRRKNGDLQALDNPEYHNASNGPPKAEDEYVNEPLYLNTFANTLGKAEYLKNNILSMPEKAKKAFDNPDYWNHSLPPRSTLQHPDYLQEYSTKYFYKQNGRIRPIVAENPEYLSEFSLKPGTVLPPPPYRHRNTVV
# Sequence of GSK3A (human), P49840 [S449A] (P49840 whole entry, looked up, stated change not applied): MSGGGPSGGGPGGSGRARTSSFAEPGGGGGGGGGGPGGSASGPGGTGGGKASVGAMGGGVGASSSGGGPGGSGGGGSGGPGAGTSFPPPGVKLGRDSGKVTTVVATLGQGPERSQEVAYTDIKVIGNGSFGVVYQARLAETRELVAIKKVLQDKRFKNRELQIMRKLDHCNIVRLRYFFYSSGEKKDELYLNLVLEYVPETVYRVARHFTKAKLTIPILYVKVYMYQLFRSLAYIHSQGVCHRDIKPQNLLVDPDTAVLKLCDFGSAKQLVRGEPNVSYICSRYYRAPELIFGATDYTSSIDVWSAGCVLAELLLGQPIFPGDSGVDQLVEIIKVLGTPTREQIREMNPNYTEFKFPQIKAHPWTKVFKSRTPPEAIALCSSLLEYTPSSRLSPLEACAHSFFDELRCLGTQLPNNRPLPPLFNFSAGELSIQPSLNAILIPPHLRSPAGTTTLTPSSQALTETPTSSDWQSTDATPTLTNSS
# Sequence of DAPK1 (human) (P53355 whole entry, looked up): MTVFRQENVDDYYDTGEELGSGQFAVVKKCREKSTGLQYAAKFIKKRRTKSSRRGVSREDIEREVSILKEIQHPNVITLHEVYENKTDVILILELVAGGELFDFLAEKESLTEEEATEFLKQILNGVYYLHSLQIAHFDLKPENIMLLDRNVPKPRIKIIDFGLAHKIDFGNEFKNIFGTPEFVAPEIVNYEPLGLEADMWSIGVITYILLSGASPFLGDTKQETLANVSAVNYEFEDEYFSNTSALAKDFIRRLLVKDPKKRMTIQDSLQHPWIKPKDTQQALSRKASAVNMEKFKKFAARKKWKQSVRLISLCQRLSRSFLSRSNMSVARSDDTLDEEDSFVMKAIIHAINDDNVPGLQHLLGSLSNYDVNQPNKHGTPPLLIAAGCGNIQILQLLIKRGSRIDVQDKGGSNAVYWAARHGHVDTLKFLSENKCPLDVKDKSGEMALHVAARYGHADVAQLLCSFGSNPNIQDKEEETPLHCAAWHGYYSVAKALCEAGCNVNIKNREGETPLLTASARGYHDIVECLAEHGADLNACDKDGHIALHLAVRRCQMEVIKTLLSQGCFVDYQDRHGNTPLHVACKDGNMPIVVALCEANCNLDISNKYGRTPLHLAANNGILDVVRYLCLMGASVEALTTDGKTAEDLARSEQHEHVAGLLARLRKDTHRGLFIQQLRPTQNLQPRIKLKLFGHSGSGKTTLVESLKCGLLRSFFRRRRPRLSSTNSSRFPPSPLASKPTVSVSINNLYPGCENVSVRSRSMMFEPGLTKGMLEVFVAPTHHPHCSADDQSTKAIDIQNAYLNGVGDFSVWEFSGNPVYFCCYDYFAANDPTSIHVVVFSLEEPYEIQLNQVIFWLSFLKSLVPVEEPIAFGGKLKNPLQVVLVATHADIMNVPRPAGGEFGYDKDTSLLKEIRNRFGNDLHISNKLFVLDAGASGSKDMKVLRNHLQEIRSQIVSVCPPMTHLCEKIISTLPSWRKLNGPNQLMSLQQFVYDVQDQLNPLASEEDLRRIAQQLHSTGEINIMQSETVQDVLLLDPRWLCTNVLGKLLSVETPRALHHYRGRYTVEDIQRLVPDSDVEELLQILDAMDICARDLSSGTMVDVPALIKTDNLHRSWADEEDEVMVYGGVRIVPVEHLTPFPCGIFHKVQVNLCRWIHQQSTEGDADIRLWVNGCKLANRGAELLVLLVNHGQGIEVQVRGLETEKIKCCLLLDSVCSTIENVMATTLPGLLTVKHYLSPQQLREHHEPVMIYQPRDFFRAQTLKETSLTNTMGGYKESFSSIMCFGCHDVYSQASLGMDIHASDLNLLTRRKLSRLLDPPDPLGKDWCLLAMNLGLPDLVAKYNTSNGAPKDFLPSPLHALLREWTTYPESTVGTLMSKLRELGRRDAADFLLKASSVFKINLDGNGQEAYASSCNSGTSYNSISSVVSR
structure (smiles),measurement,setting,value
O=C1c2ccccc2-c2n[nH]c3cccc1c23,residual activity,[1]; compound 1.0 µM,88%
same,residual activity,[1]; compound 10.0 µM,57%
same,residual activity,[2]; compound 1.0 µM,9%
same,residual activity,[2]; compound 10.0 µM,4%
same,residual activity,[3]; compound 1.0 µM,34%
same,residual activity,[3]; compound 10.0 µM,6%
same,residual activity,[4]; compound 1.0 µM,36%
same,residual activity,[4]; compound 10.0 µM,21%
same,residual activity,[5]; compound 1.0 µM,104%
same,residual activity,[5]; compound 10.0 µM,97%
same,residual activity,[6]; compound 1.0 µM,10%
same,residual activity,[6]; compound 10.0 µM,-1%
same,residual activity,[7]; compound 1.0 µM,29%
same,residual activity,[7]; compound 10.0 µM,3%
same,residual activity,[8]; compound 1.0 µM,35%
same,residual activity,[8]; compound 10.0 µM,11%
same,residual activity,[9]; compound 1.0 µM,69%
same,residual activity,[9]; compound 10.0 µM,42%
same,residual activity,[10]; compound 1.0 µM,116%
same,residual activity,[10]; compound 10.0 µM,51%
same,residual activity,[11]; compound 1.0 µM,93%
same,residual activity,[11]; compound 10.0 µM,62%
same,residual activity,[12]; compound 1.0 µM,99%
same,residual activity,[12]; compound 10.0 µM,64%
same,residual activity,[13]; compound 1.0 µM,84%
same,residual activity,[13]; compound 10.0 µM,63%
same,residual activity,[14]; compound 1.0 µM,110%
same,residual activity,[14]; compound 10.0 µM,89%
same,residual activity,[15]; compound 1.0 µM,73%
same,residual activity,[15]; compound 10.0 µM,19%
same,residual activity,[16]; compound 1.0 µM,57%
same,residual activity,[16]; compound 10.0 µM,21%
same,residual activity,[17]; compound 1.0 µM,86%
same,residual activity,[17]; compound 10.0 µM,81%
same,residual activity,[18]; compound 1.0 µM,87%
same,residual activity,[18]; compound 10.0 µM,72%
same,residual activity,[19]; compound 1.0 µM,91%
same,residual activity,[19]; compound 10.0 µM,68%
same,residual activity,[20]; compound 1.0 µM,74%
same,residual activity,[20]; compound 10.0 µM,39%
same,residual activity,[21]; compound 1.0 µM,75%
same,residual activity,[21]; compound 10.0 µM,24%
same,residual activity,"[22]; compound 1.0 µM, ATP 45 µM",80%
same,residual activity,"[22]; compound 1.0 µM, ATP 70 µM",57%
same,residual activity,"[22]; compound 10.0 µM, ATP 45 µM",83%
same,residual activity,"[22]; compound 10.0 µM, ATP 70 µM",27%
same,residual activity,[23]; compound 1.0 µM,43%
same,residual activity,[23]; compound 10.0 µM,11%
same,residual activity,[24]; compound 1.0 µM,54%
same,residual activity,[24]; compound 10.0 µM,40%
same,residual activity,[25]; compound 1.0 µM,4%
same,residual activity,[25]; compound 10.0 µM,-5%
same,residual activity,[26]; compound 1.0 µM,58%
same,residual activity,[26]; compound 10.0 µM,23%
same,residual activity,[27]; compound 1.0 µM,72%
same,residual activity,[27]; compound 10.0 µM,40%
same,residual activity,[28]; compound 1.0 µM,91%
same,residual activity,[28]; compound 10.0 µM,30%
same,residual activity,[29]; compound 1.0 µM,52%
same,residual activity,[29]; compound 10.0 µM,9%
same,residual activity,[30]; compound 1.0 µM,77%
same,residual activity,[30]; compound 10.0 µM,32%
same,residual activity,[31]; compound 1.0 µM,96%
same,residual activity,[31]; compound 10.0 µM,48%
same,residual activity,[32]; compound 1.0 µM,93%
same,residual activity,[32]; compound 10.0 µM,69%
